In ChEMBL document CHEMBL1139729, “Separation of anti-angiogenic and cytotoxic activities of borrelidin by modification at the C17 side chain” (Bioorg Med Chem Lett, 2006):
Activity calls are given as the source filed them. No cut-off for these calls is given here.

Tests used:
[1] = Antiproliferative activity against 251L cell line at 3 uM; format: functional; settings: Homo sapiens
LNCaP [2] = test: Antiproliferative activity against LNCAP cell line at 3 uM; format: functional; settings: Homo sapiens
[3] = Antiproliferative activity against 394NL cell line at 3 uM; format: functional; settings: Homo sapiens
OVCAR-3 [4] = test: Antiproliferative activity against OVCAR-3 cell line at 3 uM; format: functional; settings: Homo sapiens
SF-268 [5] = test: Antiproliferative activity against SF268 cell line at 3 uM; format: functional; settings: Homo sapiens
[6] = Antiproliferative activity against MDA231 cell line at 3 uM; format: functional; settings: Homo sapiens, MDA-MB-231
[7] = Antiproliferative activity against MDA467 cell line at 3 uM; format: functional; settings: Homo sapiens
NCI-H460 [8] = test: Antiproliferative activity against H460 cell line at 3 uM; format: functional; settings: Homo sapiens
[9] = Antiproliferative activity against 1138L cell line at 3 uM; format: functional; settings: Homo sapiens
A498 [10] = test: Antiproliferative activity against A498 cell line at 3 uM; format: functional; settings: Homo sapiens
MCF7 [11] = test: Antiproliferative activity against MCF7 cell line at 3 uM; format: functional; settings: Homo sapiens
DU-145 [12] = test: Antiproliferative activity against DU145 cell line at 3 uM; format: functional; settings: Homo sapiens
HUVEC [13] = test: Growth inhibition in HUVEC; format: functional, cell-based; settings: Homo sapiens
HUVEC [14] = test: Inhibition of HUVEC tubule formation assessed as number of branches at 0.75 pM; format: functional, Homo sapiens
[15] = (§1) Antiproliferative activity against MDA467 cell line at 10 uM; format: functional; settings: Homo sapiens; values are per cent of control
HUVEC [16] = test: Inhibition of HUVEC tubule formation assessed as length of branches at 0.75 pM; format: functional, Homo sapiens
[17] = Maximum tolerated dose in iv dosed nude mouse; format: ADME, organism-based; settings: in vivo
LNCaP [18] = test: Antiproliferative activity against LNCAP cell line at 10 uM; format: functional; settings: Homo sapiens
NCI-H460 [19] = test: Antiproliferative activity against H460 cell line at 10 uM; format: functional; settings: Homo sapiens
[20] = (§2) Antiproliferative activity against 1138L cell line at 10 uM; format: functional; settings: Homo sapiens; values are per cent of control
[21] = (§3) Antiproliferative activity against 251L cell line at 10 uM; format: functional; settings: Homo sapiens; values are per cent of control
MCF7 [22] = test: Antiproliferative activity against MCF7 cell line at 10 uM; format: functional; settings: Homo sapiens
OVCAR-3 [23] = test: Antiproliferative activity against OVCAR-3 cell line at 10 uM; format: functional; settings: Homo sapiens
HUVEC [24] = test: Inhibition of HUVEC tubule formation assessed as number of branches at 0.25 pM; format: functional, Homo sapiens
DU-145 [25] = test: Antiproliferative activity against DU145 cell line at 10 uM; format: functional; settings: Homo sapiens
A498 [26] = test: Antiproliferative activity against A498 cell line at 10 uM; format: functional; settings: Homo sapiens
[27] = Antiproliferative activity against NCI60 cell line; format: functional, cell-based; settings: Homo sapiens
SF-268 [28] = test: Antiproliferative activity against SF268 cell line at 10 uM; format: functional; settings: Homo sapiens
[29] = (§4) Antiproliferative activity against MDA231 cell line at 10 uM; format: functional; settings: Homo sapiens, MDA-MB-231; values are per cent of control
[30] = (§5) Antiproliferative activity against 394NL cell line at 10 uM; format: functional; settings: Homo sapiens; values are per cent of control
HUVEC [31] = test: Inhibition of HUVEC tubule formation assessed as length of branches at 0.25 pM; format: functional, Homo sapiens
HUVEC [32] = test: Inhibition of HUVEC tubule formation assessed as number of branches at 100 nM; format: functional, Homo sapiens
HUVEC [33] = test: Inhibition of HUVEC tubule formation assessed as length of branches at 10 nM; format: functional, Homo sapiens
HUVEC [34] = test: Inhibition of HUVEC tubule formation assessed as number of branches at 10 nM; format: functional, Homo sapiens
HUVEC [35] = test: Inhibition of HUVEC tubule formation assessed as length of branches at 100 nM; format: functional, Homo sapiens
HUVEC [36] = test: Inhibition of HUVEC tubule formation assessed as length of branches at 25 pM; format: functional, Homo sapiens
HUVEC [37] = test: Inhibition of HUVEC tubule formation assessed as number of branches at 25 pM; format: functional, Homo sapiens
HUVEC [38] = test: Inhibition of HUVEC tubule formation assessed as length of branches at 75 pM; format: functional, Homo sapiens
HUVEC [39] = test: Inhibition of HUVEC tubule formation assessed as number of branches at 75 pM; format: functional, Homo sapiens
Homo sapiens [40] = organism: Homo sapiens; test: as §1; format: functional
Homo sapiens [41] = organism: Homo sapiens; test: as §2; format: functional
Homo sapiens [42] = organism: Homo sapiens; test: as §3; format: functional
MDA-MB-231 = test: as §4; format: functional; settings: Homo sapiens
Homo sapiens [43] = organism: Homo sapiens; test: as §5; format: functional

## COc1cccc2c1C(=O)c1c(O)c3c(c(O)c1C2=O)C[C@@](O)(C(=O)CO)C[C@@H]3O[C@H]1C[C@H](N)[C@H](O)[C@H](C)O1 [DOXORUBICIN]
[1]
  inhibition at 3 µM: 15%
LNCaP [2]
  inhibition at 3 µM: 10%
[3]
  inhibition at 3 µM: 6%
OVCAR-3 [4]
  inhibition at 3 µM: 10%
SF-268 [5]
  inhibition at 3 µM: 9%
[6]
  inhibition at 3 µM: 11%
[7]
  inhibition at 3 µM: 7%
NCI-H460 [8]
  inhibition at 3 µM: 3%
[9]
  inhibition at 3 µM: 6%
A498 [10]
  inhibition at 3 µM: 11%
MCF7 [11]
  inhibition at 3 µM: 12%
DU-145 [12]
  inhibition at 3 µM: 5%

## C[C@@H]1C[C@H](C)C[C@H](C)[C@@H](O)CC(=O)O[C@H]([C@@H]2CC[C@H]2C(=O)O)C/C=C/C=C(/C#N)[C@H](O)[C@@H](C)C1
HUVEC [13]
  IC50: 500 nM
HUVEC [14]
  Activity: 40
[15]
  growth, % of control at 10 µM: 6%
HUVEC [16]
  Activity: 63
[17]
  MTD: > 130 mg/kg
LNCaP [18]
  inhibition at 10 µM: 9%
NCI-H460 [19]
  inhibition at 10 µM: 7%
[20]
  growth, % of control at 10 µM: 3%
[21]
  growth, % of control at 10 µM: 9%
MCF7 [22]
  inhibition at 10 µM: 9%
OVCAR-3 [23]
  inhibition at 10 µM: 16%
HUVEC [24]
  Activity: 38
DU-145 [25]
  inhibition at 10 µM: 16%
A498 [26]
  inhibition at 10 µM: 9%
[27]
  IC50: 300 nM
SF-268 [28]
  inhibition at 10 µM: 4%
[29]
  growth, % of control at 10 µM: 8%
[30]
  growth, % of control at 10 µM: 3%
HUVEC [31]
  Activity: 65

## C[C@@H]1C[C@H](C)C[C@H](C)[C@@H](O)CC(=O)O[C@H]([C@@H]2CCC[C@H]2C(=O)O)C/C=C/C=C(/C#N)[C@H](O)[C@@H](C)C1 [BORRELIDIN]
HUVEC [13]
  IC50: 0.5 nM
[15]
  growth, % of control at 10 µM: 6%
LNCaP [18]
  inhibition at 10 µM: 7%
NCI-H460 [19]
  inhibition at 10 µM: 4%
[20]
  growth, % of control at 10 µM: 2%
[21]
  growth, % of control at 10 µM: 8%
MCF7 [22]
  inhibition at 10 µM: 13%
OVCAR-3 [23]
  inhibition at 10 µM: 11%
DU-145 [25]
  inhibition at 10 µM: 5%
A498 [26]
  inhibition at 10 µM: 8%
[27]
  IC50: 20 nM
SF-268 [28]
  inhibition at 10 µM: 3%
HUVEC [32]
  Activity: 233
[29]
  growth, % of control at 10 µM: 12%
HUVEC [33]
  Activity: 64
[30]
  growth, % of control at 10 µM: 2%
HUVEC [34]
  Activity: 230
HUVEC [35]
  Activity: 65

## C[C@@H]1C[C@H](C)C[C@H](C)[C@@H](O)CC(=O)O[C@H](C[C@H](C)C(=O)O)C/C=C/C=C(/C#N)[C@H](O)[C@@H](C)C1
[15]
  growth, % of control at 10 µM: 62%
LNCaP [18]
  inhibition at 10 µM: 92%
NCI-H460 [19]
  inhibition at 10 µM: 84%
[20]
  growth, % of control at 10 µM: 56%
[21]
  growth, % of control at 10 µM: 81%
MCF7 [22]
  inhibition at 10 µM: 76%
OVCAR-3 [23]
  inhibition at 10 µM: 91%
DU-145 [25]
  inhibition at 10 µM: 74%
A498 [26]
  inhibition at 10 µM: 78%
SF-268 [28]
  inhibition at 10 µM: 57%
[29]
  growth, % of control at 10 µM: 90%
[30]
  growth, % of control at 10 µM: 67%

## C[C@@H]1C[C@H](C)C[C@H](C)[C@@H](O)CC(=O)O[C@H]([C@H](C)CC(=O)O)C/C=C/C=C(/C#N)[C@H](O)[C@@H](C)C1
[15]
  growth, % of control at 10 µM: 15%
LNCaP [18]
  inhibition at 10 µM: 24%
NCI-H460 [19]
  inhibition at 10 µM: 38%
[20]
  growth, % of control at 10 µM: 5%
[21]
  growth, % of control at 10 µM: 26%
MCF7 [22]
  inhibition at 10 µM: 12%
OVCAR-3 [23]
  inhibition at 10 µM: 32%
DU-145 [25]
  inhibition at 10 µM: 55%
A498 [26]
  inhibition at 10 µM: 21%
SF-268 [28]
  inhibition at 10 µM: 13%
[29]
  growth, % of control at 10 µM: 20%
[30]
  growth, % of control at 10 µM: 9%

## C[C@@H]1C[C@H](C)C[C@H](C)[C@@H](O)CC(=O)O[C@H]([C@H](C)[C@H](C)C(=O)O)C/C=C/C=C(/C#N)[C@H](O)[C@@H](C)C1
HUVEC [13]
  IC50: 1 nM
[15]
  growth, % of control at 10 µM: 7%
LNCaP [18]
  inhibition at 10 µM: 7%
NCI-H460 [19]
  inhibition at 10 µM: 3%
[20]
  growth, % of control at 10 µM: 3%
[21]
  growth, % of control at 10 µM: 12%
MCF7 [22]
  inhibition at 10 µM: 9%
OVCAR-3 [23]
  inhibition at 10 µM: 6%
DU-145 [25]
  inhibition at 10 µM: 7%
A498 [26]
  inhibition at 10 µM: 9%
[27]
  IC50: 70 nM
HUVEC [36]
  Activity: 62
SF-268 [28]
  inhibition at 10 µM: 3%
[29]
  growth, % of control at 10 µM: 7%
[30]
  growth, % of control at 10 µM: 4%
HUVEC [37]
  Activity: 116
HUVEC [38]
  Activity: 63
HUVEC [39]
  Activity: 246

## CS[C@H](C[C@@H]1C/C=C/C=C(/C#N)[C@H](O)[C@@H](C)C[C@H](C)C[C@H](C)C[C@H](C)[C@@H](O)CC(=O)O1)C(=O)O
[15]
  growth, % of control at 10 µM: 59%
LNCaP [18]
  inhibition at 10 µM: 59%
NCI-H460 [19]
  inhibition at 10 µM: 79%
[20]
  growth, % of control at 10 µM: 42%
[21]
  growth, % of control at 10 µM: 67%
MCF7 [22]
  inhibition at 10 µM: 48%
OVCAR-3 [23]
  inhibition at 10 µM: 102%
DU-145 [25]
  inhibition at 10 µM: 75%
A498 [26]
  inhibition at 10 µM: 68%
SF-268 [28]
  inhibition at 10 µM: 54%
[29]
  growth, % of control at 10 µM: 81%
[30]
  growth, % of control at 10 µM: 64%

## C/C1=C/C=C/C[C@@H]([C@@H]2CCC[C@H]2C(=O)O)OC(=O)C[C@H](O)[C@@H](C)C[C@@H](C)C[C@@H](C)C[C@H](C)[C@H]1O
HUVEC [13]
  Activity: inactive
Homo sapiens [40]
  Activity: inactive
LNCaP [18]
  Activity: inactive
NCI-H460 [19]
  Activity: inactive
Homo sapiens [41]
  Activity: inactive
Homo sapiens [42]
  Activity: inactive
MCF7 [22]
  Activity: inactive
OVCAR-3 [23]
  Activity: inactive
DU-145 [25]
  Activity: inactive
A498 [26]
  Activity: inactive
SF-268 [28]
  Activity: inactive
MDA-MB-231
  Activity: inactive
Homo sapiens [43]
  Activity: inactive

## C[C@@H]1C[C@H](C)C[C@H](C)[C@@H](O)CC(=O)O[C@H](C[C@@H](C)C(=O)O)C/C=C/C=C(/C#N)[C@H](O)[C@@H](C)C1
[15]
  growth, % of control at 10 µM: 25%
LNCaP [18]
  inhibition at 10 µM: 34%
NCI-H460 [19]
  inhibition at 10 µM: 49%
[20]
  growth, % of control at 10 µM: 6%
[21]
  growth, % of control at 10 µM: 32%
MCF7 [22]
  inhibition at 10 µM: 16%
OVCAR-3 [23]
  inhibition at 10 µM: 29%
DU-145 [25]
  inhibition at 10 µM: 68%
A498 [26]
  inhibition at 10 µM: 30%
SF-268 [28]
  inhibition at 10 µM: 14%
[29]
  growth, % of control at 10 µM: 26%
[30]
  growth, % of control at 10 µM: 9%
